# Source: US20060165683A1, “Methods and compositions for control of bone formation via modulation of sympathetic tone” (priority 2001, published 2006)
# B1: Oncostatin-M: positive control that induces Stat3 phosphorylation in osteoblasts (protein, UniProt P13725 26-221, looked up)
# Oncostatin-M: AAIGSCSKEYRVLLGQLQKQTDLMQDTSRLLDPYIRIQGLDVPKLREHCRERPGAFPSEETLRGLGRRGFLQTLNATLGCVLHRLADLEQRLPKAQDLERSGLNIEDLEKLQMARPNILGLRNNIYCMAQLLDNSDTAEPTKAGRGASQPPTPTPASDAFQRKLEGCRFLHGYHRFMHSVGRVFSKWGESPNRSRR
# What was measured:
# [1] = system: bone marrow adipocytes; details: lumbar spine; cited from earlier work
# [2] = system: ob/ob mice; experiment: 17 β-estradiol or testosterone treatment of hypogonadic ob/ob mice; type: in vivo, mouse
# Source text: Nevertheless, to address this point more thoroughly the hypogonadism of the ob/ob mice was exploited. Hypogonadism normally leads to an increase in osteoclasts number and in bone resorptive activity. […] On the other hand, if the osteoclasts of the ob/ob mice were not functioning properly, correcting their hypogonadism should not affect the severity of their high bone mass phenotype. To determine which of these two possibilities was correct, 17 β-estradiol or placebo pellets (Innovative Research of America) were implanted subcutaneously in 2-month-old female ob/ob mice to maintain a serum concentration of 250 pg/mL. These animals were analyzed after a 3-month treatment period.
# Finally, the function of the osteoclasts of ob/ob and db/db mice was studied in vitro in an assay using hematopoietic progenitor cells from wild type, ob/ob, or db/db mice and growth factors known to induce the differentiation of these cells into functional osteoclasts. Mouse osteoclasts were generated in vitro according to protocols previously reported (Simonet et al., 1997, Cell 89, 309-319; Quinn et al., 1998, Endocrinology 139, 4424-4427). […] Medium was changed every other day. After 6 days of culture, cells were fixed in 3.7% formalin. Osteoclasts formed on plastic plates were stained for tartrate resistant acid phosphatase. Cells on dentin chips were removed by treatment with sodium hypochloride solution. Dentin chips were then stained with toluidine blue to visualize resorption pits.
# [3] = system: wild-type (wt) mice; experiment: 17 β-estradiol treatment of wild-type mice; type: in vivo, mouse
# [4] = system: C57BL/6J mice; experiment: GTG lesioning of the hypothalamus in wt mice; type: in vivo, mouse
# Procedure: Wildtype (C57BL/6J) and mutant (C57BL/6J A^y/a, C57BL/6J ob/ob) mice were obtained from the Jackson laboratory and adrenal medullectomized mice from Harlan Tecklad laboratory. Dbh−/− mice were rescued as previously described (Thomas et al., 1998, Neurochem 70:2468-2476). Isoproterenol (Sigma) was injected intraperitoneally (ip) once daily for 6 weeks at 30 mg/kg (wt) or 3 mg/kg (ob/ob). Propranolol (Sigma) was added to the drinking water at a concentration of 0.5 g/l. For ICV infusion, a 28-gauge cannula (Brain infusion kit II, Alza) was implanted into the third ventricle as previously described infusing human leptin (Sigma) at 8 ng/hr or MT-II at 125 ng/hr (Phoenix Pharmaceuticals) for 28 days (see, e.g., Ducy et al., 2000, Cell 100: 197-207). The cannula was connected to an osmotic pump (Alza) placed in the dorsal subcutaneous space of the animal. For parabiosis longitudinal incisions were made in the skin and in the peritoneal cavity along one side on each mouse. Edges of the incisions were connected by suture to induce coelioanastomosis. Cross-circulation was quantified by injecting 1 ml/kg 0.25% Evans blue into the tail vein of one mouse of the parabiosed pair. After 30 min. blood was collected from both mice by retroorbital bleeding and the blood exchange rate was calculated according to standard techniques (see, e.g., Harris & Martin, 1984, Am J Physiol 247:R380-386). […] Two weeks after parabiosis a pump delivering leptin ICV in one animal of each pair was implanted. For GTG lesioning, 4-week-old C57BL/6J mice were given a single ip injection of either PBS or GTG (0.5 mg/g). For MSG lesioning, 2 day-old C57BL/6J pups were injected daily subcutaneously with either PBS or MSG (2 mg/g) for 10 days.
# Next, 4-week-old wt mice were treated with gold thioglucose (GTG), a compound that destroys neurons of the VMH and of the more dorso-lateral part of the ARC although it affects other neurons (see, e.g., Debons et al., 1962, Am J Physiol 4:743-750). […] As with ob/ob mice, this HBM was due to an increase in bone formation defined by an increase in the bone formation rate (FIG. 9E). […] These findings established that neurons sensitive to GTG are involved in the control of bone mass.
# [5] = system: murine primary osteoblasts; experiment: cAMP production in murine primary osteoblasts; type: cell-based, mouse; details: confluent cultures, 100 μM IBMX, 5 min treatment; PTH as positive control
# Procedure: (§1) Primary osteoblast cultures were established as previously described (see, e.g., Ducy et al., 2000, Cell 100: 197-207) and maintained in αMEM/0.1 mg/ml ascorbic acid supplemented with 10% FBS. SaOS-2 were grown in MEM/10% FBS. For cAMP assay confluent cultures were incubated with serum free medium containing 100 μM IBMX (3-isobutyl-1-methylxanthine, Sigma) for 8 minutes before PBS, PTH(1-34) (Bachem), isoproterenol, norepinephrine, phenylephrine (Sigma) or propranolol were added for 5 min. Intracellular cAMP concentration was measured by immunoassay (R&D Systems). For gene expression analyses, primary osteoblasts were treated for 72 hours with appropriate drugs in 0.1% FBS. Hormone serum levels were quantified using immunoassays kits from Peninsula Laboratories (Insulin) or Alpco Diagnostics (leptin). Deoxypyridinoline cross-links and Creatinine were measured in morning urines using the Quidel kits. a1(I) leptin bioactivity was verified by cotransfection of 293 cells expressing ObRb with a STAT3-responsive-luc reporter construct, pSVβgal plasmid and a1(I) leptin expression vector or mock. Twenty-four hours later luciferase and β-galactosidase activities were measured. Data represents ratios of luciferase/β-galactosidase activities, and values are mean of 6 independent transfection experiments.
# For a sympathetic regulation of bone formation to exist several requirements have to be fulfilled. The first one is that functional adrenergic receptors are present on osteoblasts. […] Immunohistochemical analysis of long bones from transgenic mice expressing LacZ under the control of the osteoblast-specific fragment of the a1(I) collagen promoter verified the presence of β2-adrenergic receptors on osteoblasts (FIG. 13B). No other adrenergic receptor subtype could be detected. […] Electron micrographs confirmed the presence of unmyelinated peripheral nerve axons coursing through the marrow adjacent to bone trabeculae and to osteoblasts (FIG. 13E). β-adrenergic receptors are G-coupled receptors that signal through the cAMP pathway (see, e.g., Benovic et al., 1988, Annu Rev Cell Biol 4:405-428). Thus, to assess the biologic relevance of the presence of β2-adrenergic receptors on osteoblasts, these cells were treated with isoproterenol, a β-adrenergic agonist, alone or in the presence of propranolol, a β-adrenergic receptor antagonist; with norepinephrine, the natural ligand of β-adrenergic receptors; with phenylephrine, an α-adrenergic agonist or with vehicle and measured cAMP production. As a positive control, parathyroid hormone (PTH) that binds to another G-coupled receptor present in osteoblasts was used (Gardella & Juppner, 2001, Trends Endocrinol Metab 12:210-217.). […] These effects were abolished by propranolol treatment. […]
# [6] = system: human SaOS-2 osteoblastic cells; experiment: cAMP production in human SaOS-2 osteoblastic cells; type: cell-based; details: SaOS-2, 100 μM IBMX, 5 min treatment
# Procedure: as §1
# For a sympathetic regulation of bone formation to exist several requirements have to be fulfilled. The first one is that functional adrenergic receptors are present on osteoblasts. […] No other adrenergic receptor subtype could be detected. […] Thus, to assess the biologic relevance of the presence of β2-adrenergic receptors on osteoblasts, these cells were treated with isoproterenol, a β-adrenergic agonist, alone or in the presence of propranolol, a β-adrenergic receptor antagonist; with norepinephrine, the natural ligand of β-adrenergic receptors; with phenylephrine, an α-adrenergic agonist or with vehicle and measured cAMP production. […]
# [7] = system: ob/ob mice; experiment: ICV infusion of MTII in ob/ob mice; type: in vivo, mouse; details: ICV 125 ng/hr, 28 days
# Procedure: (§2) Wildtype (C57BL/6J) and mutant (C57BL/6J A^y/a, C57BL/6J ob/ob) mice were obtained from the Jackson laboratory and adrenal medullectomized mice from Harlan Tecklad laboratory. Dbh−/− mice were rescued as previously described (Thomas et al., 1998, Neurochem 70:2468-2476). Isoproterenol (Sigma) was injected intraperitoneally (ip) once daily for 6 weeks at 30 mg/kg (wt) or 3 mg/kg (ob/ob). Propranolol (Sigma) was added to the drinking water at a concentration of 0.5 g/l. For ICV infusion, a 28-gauge cannula (Brain infusion kit II, Alza) was implanted into the third ventricle as previously described infusing human leptin (Sigma) at 8 ng/hr or MT-II at 125 ng/hr (Phoenix Pharmaceuticals) for 28 days (see, e.g., Ducy et al., 2000, Cell 100: 197-207). The cannula was connected to an osmotic pump (Alza) placed in the dorsal subcutaneous space of the animal. For parabiosis longitudinal incisions were made in the skin and in the peritoneal cavity along one side on each mouse. Edges of the incisions were connected by suture to induce coelioanastomosis. Cross-circulation was quantified by injecting 1 ml/kg 0.25% Evans blue into the tail vein of one mouse of the parabiosed pair. After 30 min. blood was collected from both mice by retroorbital bleeding and the blood exchange rate was calculated according to standard techniques (see, e.g., Harris & Martin, 1984, Am J Physiol 247:R380-386). […]
# [8] = system: C57BL/6J pups; experiment: MSG lesioning of the hypothalamus in mice; type: in vivo, mouse
# Procedure: as §2
# [9] = system: ovariectomized rat; details: cited from earlier work
# [10] = system: primary osteoblasts isolated from wild-type mice; experiment: Leptin signaling in primary osteoblast cultures (Stat3 phosphorylation, immediate early genes, matrix synthesis and mineralization); type: cell-based, mouse
# Procedure: Expression of leptin in osteoblasts was studied in subconfluent primary osteoblast cultures from wild-type mice which were maintained for 4 days in 10% FBS mineralization medium and then subsequently switched to 0.5% for 2 days and replaced daily. Medium was replaced 2 hours before a 20 min treatment with 80 ng/mL leptin (Sigma) or 40 ng/mL Oncostatin M (R&D Diagnostics) or vehicle. RNA extractions were performed using Triazol (Gibco). Northern blots were performed with 15 μg of total RNA according to methods well known in the art.
# To determine whether or not leptin could transduce its signal in osteoblasts, serum-starved primary osteoblasts isolated from wild-type mice were treated with leptin. Primary osteoblast cultures from calvaria of newborn wild-type or db/db mice were established as previously described (Ducy et al., 1999, Genes Dev 13, 1025-1036) and maintained in mineralization medium (αMEMI 0.1 mg/mL ascorbic acid; 5 mM […]) supplemented with 10% […]. Cultures of mutant cells were maintained in this medium for 15 days before analysis. Cultures derived from wild-type mice were maintained for 10 days in this medium then the percentage of serum was reduced to 0.5% and the medium supplemented with 1.2 μg/mL leptin (Sigma) or vehicle for 5 days.
# The phosphorylation of Stat3, a downstream effector of leptin signaling in its target cells (Tartaglia et al., 1995, Cell 83, 1263-1271; Baumann et al., 1996, Proc Natl Acad Sci USA 93, 8374-8378; Ghilardi et al., 1996, Proc Natl Acad Sci USA 93, 6231-6235; Vaisse et al., 1996, Nat Genet 14, 95-97), was monitored, in addition to the expression of two immediate early genes whose transcription is increased following leptin treatment of target cells (Elmquist et al., 1997, Endocrinology 138, 839-842). As a positive control oncostatin-M that induces Stat3 phosphorylation and activates the expression of the same two immediate early genes in osteoblasts (Levy et al., 1996, Endocrinology 137, 1159-1165) was utilized. Western blot analysis was performed to determine Stat3 phosphorylation as follows. Cells were lysed, protein extracts were separated on a 7.5% SDS-PAGE and blotted on nitrocellulose (Biorad) for immunoblotting assay by methods well known in the art. Analysis of Stat3 phosphorylation was performed using the PhosphoPlus Stat3 (Tyr7O5) Antibody kit (New England Biolabs) according to the manufacturer's instructions.
# Finally, the effect of a long-term leptin treatment of primary osteoblast cultures from wild-type mice on extracellular matrix synthesis and bone matrix mineralization was determined. The presence of a collagen-rich extracellular matrix and of mineralization nodules was assessed by whole-mount staining of the cultures by the van Gieson and von Kossa reagent, respectively. No difference was observed when assessing collagen synthesis or mineralization nodule formation between control and leptin-treated cultures (FIG. 5E).
# [11] = estradiol-treated ob/ob mice, end of treatment period
# [12] = female ob/ob mice, 3-month treatment
molecule,measurement,setting,value
COC(=O)COc1ccc(CC(C)NCC(O)c2cccc(Cl)c2)cc1 (stereo not drawn) [BRL 35135],sizes of bone marrow adipocytes,[1],reduce
C[C@]12CC[C@@H]3c4ccc(O)cc4CC[C@H]3[C@@H]1CC[C@@H]2O [17 β-estradiol],"hypogonadism, as judged by the aspect of uteri and levels of estradiol in blood","[2]; 2-month-old female ob/ob mice, subcutaneous pellets, serum 250 pg/mL, 3-month treatment",corrected their hypogonadism
same,increase in bone volume compared to estradiol-treated wild-type mice,[2]; [11],50%
same,increase in bone volume compared to untreated wild-type mice,[2]; [11],3 fold
same,high bone mass phenotype compared to placebo treated ob/ob mice,[2]; [12],further increase
same,osteoclast number,[2]; [12],normalization
same,bone trabeculae (histological analysis of vertebrae),[3],significant increase
"OC[C@@H](O)[C@@H](O)[C@H](O)[C@@H](O)C=S.[Au] [GTG, gold thioglucose]",VMH neurons expressing SF1 (immunohistochemistry),"[4]; 4-week-old wt mice, single ip injection 0.5 mg/g",marked perturbation
same,bone formation rate,[4]; 12 week-old GTG-treated mice,increase
same,bone mass (bone histologic analysis),[4]; 12 week-old GTG-treated mice,HBM whose severity was nearly identical to that of ob/ob mice
same,urinary elimination of deoxypyridinoline (dpd) and osteoclast numbers,[4]; GTG-treated mice,normal
NC[C@H](O)c1ccc(O)c(O)c1 [norepinephrine],cAMP production,[5],increased
same,cAMP production,[6],induced
CNC[C@H](O)c1cccc(O)c1 [phenylephrine],cAMP production,[5],not
MTII,body weight,[7],significantly decreased
same,bone mass,[7],did not affect
"N[C@@H](CCC(=O)O)C(=O)[O-].[Na+] [MSG, monosodium glutamate]",ARC structures (neurons synthesizing NPY),"[8]; newborn pups, 2 mg/g subcutaneously daily for 10 days",markedly affected
same,"bone mass (bone volume, histology)",[8]; twelve week-old MSG-treated mice,normal
CC(C)(C)NCC(O)c1ccc(O)c(CO)c1 (stereo not drawn) [salbutamol],effects in bone,[9],Anabolic effects
B1,expression of Tis11 and c-fos (Northern analysis),"[10]; primary osteoblasts, 20 min treatment",quickly and transiently activated
same,Stat3 phosphorylation (Western blot),"[10]; serum-starved primary osteoblasts, 20 min, leptin 80 ng/mL, Oncostatin M 40 ng/mL",did induce
